According to article PMC2361671, “Preclinical pharmacokinetics and metabolism of a novel prototype DNA-PK inhibitor NU7026” (British Journal of Cancer, 2005):
Like-named read-outs stand apart in the source and are kept apart here.

Key:
[1] = Urinary excretion / metabolite profile in 24 h mouse urine; format: in vivo, Female BALB/c mice; conditions: mice, NU7026 5 mg kg^−1 i.v., LC/MS ion current
Description: (§1) NU7026 was formulated in 10% DMSO and 5% Tween 20 in saline for i.p. and perorally (p.o.) administration at 20 and 50 mg kg^−1, respectively. For i.v. dosing at 5 mg kg^−1, NU7026 was formulated in 10% ethanol, 25% PEG 200 and 5% Tween 20 in saline. Control animals received the vehicle alone. Groups of three mice were injected per time point. Blood was collected by cardiac puncture following transient anaesthesia with halothane at 0.083, 0.25, 0.5, 1, 2, 4, 6, and 24 h post administration. Following centrifugation at 1500 g for 2 min to obtain plasma, samples were stored at −20°C until analysis. For urinary excretion studies, NU7026 was administered at 5 mg kg^−1 i.v. Urine was collected over 24 h in metabolic cages, and stored at −20°C until required.
For metabolism studies, LC/MS and LC/MS/MS were carried out on an LCQ ion trap instrument (ThermoFinnigan, UK). Separation was achieved using the same column as above. A linear gradient of 90% formic acid (0.1%) : 10% MeOH to 10% formic acid (0.1%) : 90% MeOH was run at 1 ml min^−1 from 0.5 to 6.5 min followed by 3.5 min isocratic. The capillary temperature was set to 200°C and the scan range from m/z 50 to m/z 850. For confirmation of metabolite structures, metabolites were spiked in control matrix and MS/MS fragmentation patterns and retention times were compared to those of biological samples.

[2] = Plasma pharmacokinetics in mice (LC/MS/MS); format: in vivo, Female BALB/c mice
Description: as §1
Samples were analysed by liquid chromatography tandem mass spectrometry (LC/MS/MS). Chromatography was performed using a 50 × 4.6 mm ID 5 μm zwitterionic ABZ+ column (Supelco, Poole, Dorset, UK) and a gradient of 20% methanol (MeOH) in formic acid (0.1%) to 100% MeOH over 3 min, followed by an isocratic period at a flow rate of 0.6 ml min^−1. The total run time was 7 min. Detection by multiple reaction monitoring was performed on a TSQ700 triple quadrupole mass spectrometer equipped with an electrospray source and operated in positive ion mode (Thermoquest Ltd, Hemel Hempstead, Herts, UK). The heated capillary was maintained at 280°C and at a voltage of 4.5 kV. The following transitions were monitored: m/z (mass to charge ratio) 282.4 → m/z 171 for NU7026; m/z 262.3 → m/z 121 for NU7031; m/z 300 → m/z 256 for NU7119; m/z 300 → m/z 238 for NU7200. Calibration standards (20, 200, 500, 1000, 2000, 5000, 10 000, 20 000 and 50 000 nM) were prepared in blank mouse plasma. Following the addition of internal standard (30 μl of 2 μM solution of NU7031), plasma proteins were precipitated with 300 μl MeOH. Samples were then centrifuged and 20 μl of supernatant was injected onto the column. Peak area was plotted against concentration and unknown concentrations derived from the linear plot (analysed with Prism 2.01, Graphpad Software, San Diego, CA, USA).
Pharmacokinetic parameters were evaluated by noncompartmental analysis (model 200 for p.o. and i.p. administration and 201 for i.v. administration) using WinNonlin® Professional Version 3.2 (Pharsight Corporation, Mountain View, CA, USA). For simulation studies, parameters were derived from compartmental analysis.

DNA-PK = DNA-PK (Homo sapiens, UniProt P78527); test: DNA-PK inhibition; format: biochemical; conditions: stated in results, no method or reference given; read-out: IC50 inhibiting DNA-PK
[3] = system: CH1 human ovarian carcinoma cells; test: Clonogenic survival assay / radiosensitisation; format: cell-based; conditions: for cell count, % of the radiation control group: P<0.01
Description: These experiments were not designed as classical radiosensitisation experiments, that is, radiation dose finding study, but rather as experiments to investigate the minimum drug exposure required to observe radiosensitisation. CH1 human ovarian carcinoma cells were chosen as as a model because of their relative radiosensitivity (Kelland, personnal communication). They were grown as monolayers in Dubelcco's modified Eagle's medium (Invitrogen, Paisley, Scotland) augmented with 10% heat-inactivated fetal calf serum, 2 mM L-glutamine, minimal essential medium nonessential amino acid (Invitrogen) and 0.5 μg ml^−1 hydrocortisone in a 6.5% CO2/93.5% air atmosphere.
Cells were seeded at 1000 per 10 ml into […] flasks and left to attach overnight. Each group consisted of triplicate flasks. Following the addition of NU7026 (10 μM) or dimethyl sulphoxide (DMSO) solvent control for 24 h (final concentration of DMSO was 0.5%), cells were irradiated with a cobalt source (^60Co) for 3 min and 9 s at a distance of 40 cm to give a total dose of 2 Gy, or 2 min and 49 s at a distance of 30 cm to give a final dose of 3 Gy, or 6 min and 18 s at a distance of 40 cm to give a total dose of 4 Gy. Control cells were not treated with either drug or ionising radiation. Group 2 cells were treated with NU7026 only and Group 3 cells were irradiated only. Groups 4–7 were treated with NU7026 and irradiated with 2, 3 or 4 Gy. The drug was washed off by aspiration of the medium and rinsing with 10 mM phosphate-buffered saline (PBS) 2 h (Group 4), 4 h (Group 5), 6 h (Group 6) and 24 h (Group 7) after exposure. Following the addition of drug-free medium, cells were left to grow until colonies were visible. Colonies were then counted after 9 days and expressed as a percentage of controls. The doubling time of the cells was approximately 16 h.

[4] = system: ataxia telangiectasia and rad 3-related kinases (ATR); set-up: method as in Veuger et al, 2003, 2004; Griffin et al 2005; conditions: ref Veuger et al, 2003, 2004; Griffin et al 2005; cited from earlier work
[5] = molecular target: ataxia telangiectasia mutated kinase (ATM); set-up: method as in Veuger et al, 2003, 2004; Griffin et al 2005; conditions: ref Veuger et al, 2003, 2004; Griffin et al 2005; cited from earlier work
[6] = molecular target: phosphoinositide 3-kinase; set-up: method as in Veuger et al, 2003, 2004; Griffin et al 2005; conditions: ref Veuger et al, 2003, 2004; Griffin et al 2005; cited from earlier work
[7] = Solubility (for constant infusion with osmotic minipumps); format: physicochemical; conditions: for dosing by constant infusion with osmotic minipumps
[8] = Table 2: parent and metabolites in plasma after NU7026 at 5 mg kg^−1 i.v. to mice
[9] = Table 3: each compound at 20 mg kg^−1 i.p. to mice, plasma
[10] = female, BALB/c, mouse, plasma, ip, 20 mg/kg, Table 3: each compound at 20 mg kg^−1 i.p. to mice, plasma

## O=c1cc(NCCOCCO)oc2c1ccc1ccccc12 [NU7200, 2-[2-(2-hydroxyethoxy)-ethylamino]-benzo[H]chromen-4-one]
[1]
  level in 24 h urine samples: significant amounts
[2]; [8]
  AUC last: 143 nmol·L/h

## O=c1cc(N2CCOC(O)C2)oc2c1ccc1ccccc12 (centres unmarked) [M1]
[1]
  level in 24 h urine samples: significant amounts

## C[C@@H]1CN(c2cc(=O)n3ccc4ccccc4c3n2)C[C@H](C)O1 [NU7107, 2-((2S,6R)-2,6-dimethylmorpholin-4-yl)-pyrimido[2,1-a]isoquinolin-4-one]
DNA-PK
  IC50: > 10 µM
[2]; [9]
  AUC last: 12165 nmol·L/h
  Cl obs.: 0.11 L/h
  Vd: 0.12 L
[2]; female, BALB/c, mouse, ip, Table 3: each compound at 20 mg kg^−1 i.p. to mice, plasma
  half-life: 47.4 min
[2]; female, BALB/c, mouse, ip, Table 3: each compound at 20 mg kg^−1 i.p. to mice, plasma, read-out: Tmax
  Tmax: 15 min
[2]; [10]
  Cmax: 10.4 µM
[2]; mice, 20 mg kg^−1 i.p.
  decrease in plasma clearance compared with NU7026: four-fold
  plasma level 6 h post administration: still detectable

## O=c1cc(N(CCO)CCO)oc2c1ccc1ccccc12 [NU7199, 2-[bis-(2-hydroxyethyl)-amino]-benzo[H]chromen-4-one]
[1]
  level in 24 h urine samples: significant amounts
[2]; [8]
  AUC last: 414 nmol·L/h

## O=c1cc(N2CCOCC2)oc2c1ccc1ccccc12 [NU7026, 2-(morpholin-4-yl)-benzo[H]chromen-4-one]
[3]; 10 μM NU7026 combined with 2 Gy radiation
  cell survival, % of the solvent-treated group: 15%
[3]; 10 μM NU7026 combined with 3 Gy radiation
  cell survival, % of the solvent-treated group: 9%
[3]; 10 μM NU7026 combined with 4 Gy radiation
  cell survival, % of the solvent-treated group: 1%
[3]; 2 h treatment with 10 μM NU7026 + 3 Gy, t test P>0.1
  radiosensitisation vs radiation alone: no significant difference
[3]; 4 h exposure to 10 μM NU7026 + 3 Gy
  cell count, % of the radiation control group: 61%
[3]; 6 h exposure to 10 μM NU7026 + 3 Gy
  cell count, % of the radiation control group: 47%
[3]; 24 h exposure to 10 μM NU7026 + 3 Gy
  cell count, % of the radiation control group: 13%
[3]; Homo sapiens, Ovarian carcinoma cell, NU7026 alone, 10 μM for 24 h, no radiation, read-out: surviving fraction, % of control cells
  activity at 10 µM: 91 ± 13%
[4]
  IC50: > 100 µM
[5]
  IC50: > 100 µM
[6]
  IC50: 13 µM
[2]; [8]
  AUC last: 3616 nmol·L/h
[2]; [9]
  Cl obs.: 0.44 L/h
  Vd: 0.55 L
  t1/2: 52.2 min
[2]; female, BALB/c, mouse, ip, mice, 20 mg kg^−1 i.p., plasma
  half-life: 52.2 min
[2]; female, BALB/c, mouse, ip, mice, 20 mg kg^−1 i.p., plasma, read-out: Tmax
  Tmax: 4.98 min
[2]; female, BALB/c, mouse, iv, mice, 5 mg kg^−1 i.v., plasma
  half-life: 73.2 min
[2]; female, BALB/c, mouse, iv, mice, 5 mg kg^−1 i.v., plasma, read-out: Tmax
  Tmax: 0 min
[2]; female, BALB/c, mouse, plasma, intraperitoneal, mice, i.p. 20 mg kg^−1, assuming linear i.v. pharmacokinetics
  bioavailability: 20%
[2]; [10]
  Cmax: 5.12 µM
[2]; female, BALB/c, mouse, plasma, ip, 20 mg/kg, mice, 20 mg kg^−1 i.p., noncompartmental
  Cmax: 7.36 µM
[2]; female, BALB/c, mouse, plasma, iv, 5 mg/kg, mice, 5 mg kg^−1 i.v., noncompartmental
  Cmax: 5.12 µM
[2]; female, BALB/c, mouse, plasma, iv, 5 mg/kg, mice, 5 mg kg^−1 i.v., plasma, read-out: Cl obs. (converted)
  clearance: 1.5 mL/min
[2]; female, BALB/c, mouse, plasma, iv, 5 mg/kg, mice, 5 mg kg^−1 intravenous (abstract), read-out: plasma clearance (converted)
  clearance: 1.8 mL/min
[2]; female, BALB/c, mouse, plasma, iv, mice, 5 mg kg^−1 i.v., based on the elimination phase, read-out: Vd
  Vd: 0.16 L
[2]; female, BALB/c, mouse, plasma, po, 50 mg/kg, mice, 50 mg kg^−1 p.o., noncompartmental
  Cmax: 2.23 µM
[2]; female, BALB/c, mouse, plasma, po, 50 mg/kg, mice, p.o. 50 mg kg^−1 (discussion)
  Cmax: < 2.5 µM
[2]; female, BALB/c, mouse, po, mice, 50 mg kg^−1 p.o., plasma
  half-life: 88.8 min
[2]; female, BALB/c, mouse, mice, oral 50 mg kg^−1, plasma, read-out: time of maximum concentration after administration
  Tmax: 60 min
[2]; mice, 5 mg kg^−1 i.v., plasma
  AUC last: 3616 nM l h^−1
[2]; mice, 20 mg kg^−1 i.p., based on the elimination phase
  Vd: 0.55 L
[2]; mice, 20 mg kg^−1 i.p., plasma
  AUC last: 2940 nM l h^−1
  Cl obs.: 0.44 L/h
[2]; mice, 50 mg kg^−1 p.o., based on the elimination phase
  Vd: 1.34 L
[2]; mice, 50 mg kg^−1 p.o., plasma
  AUC last: 5191 nM l h^−1
  Cl obs.: 0.63 L/h
[2]; mice, i.v. 5 mg kg^−1
  plasma level at 4 h post administration: undetectable
[2]; mice, i.v. administration, plasma
  time compound levels were above 10 μM: less than 1 h
[2]; mice, oral 50 mg kg^−1, plasma
  maximum concentration: 2.2 µM
[2]; mice, p.o. 50 mg kg^−1 (abstract prints 20 mg kg^−1), based on linear i.v. pharmacokinetics
  oral bioavailability: 15%
[7]
  solubility: insufficient solubility
